Results: patent publication US12371454B2, “Cyclic peptide compound having Kras inhibitory action” (priority 2019, dated 2025)
Starred links: 1 amine or outer side, 2 acyl side, 3 side chain; linkers in the order of their positions; H or OH if unused. Positions of bridges follow the written chain, without caps; N, C: chain ends. Non-standard residues stand in square brackets, D forms with d. Residues, ends and D or L forms follow the SMILES beside them. *: point of attachment. hPhe(3-Cl-4-CF3) = N[C@@H](CCc1ccc(C(F)(F)F)c(Cl)c1)C(=O)O; X52 = CN([C@@H](Cc1ccc(C#N)nc1)C(=O)[*:2])[*:1]; X21 = O=C(CN(c1cccc(Cl)c1)[*:1])[*:2]; X43 = O=C(CN(c1ccc(Cl)cc1)[*:1])[*:2]; NMeGly(cBu) = CN[C@H](C(=O)O)C1CCC1; NMeCha = CN[C@@H](CC1CCCCC1)C(=O)O; NMeChg = CN[C@H](C(=O)O)C1CCCCC1; X7 = O=C(CN(c1ccsc1)[*:1])[*:2]; NMeD = CN[C@@H](CC(=O)O)C(=O)O; NMeL = CN[C@@H](CC(C)C)C(=O)O; NPhGly = O=C(O)CNc1ccccc1; NMeA = CN[C@@H](C)C(=O)O; NMeAib = CNC(C)(C)C(=O)O; Piperidide = C1CCN(*)CC1; Ac5c = NC1(C(=O)O)CCCC1; Aze = O=C(O)[C@@H]1CCN1; Sar = CNCC(=O)O

Assays:
[1] = target: T1, Kras and SOS1 (biotin-tagged human Kras loaded with GDP, His-tagged human SOS1) (Homo sapiens, UniProt P01116, G12D); assay: Protein-protein interaction inhibition between Kras and SOS1 (KrasGl2D-SOS PPI) using AlphaScreen; assay type: binding; conditions: AlphaScreen; biotin-tagged human Kras loaded with GDP, His-tagged human SOS1; read-out: KRAS G12D-SOS PPI IC50
T1 construct: made in house; host or cells: E. coli (stated for Kras only)
In short: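 Energy transfer from nickel-chelate donor beads bound to His-SOS1 to streptavidin acceptor beads bound to biotin-Kras, expressed in E. coli and loaded with GDP after purification, was monitored. Donors were excited at 680 nm; singlet oxygen reaching acceptors gave emission read at 520-620 nm.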

[2] = tested on: Human pancreatic cancer cell line AsPC-1; assay: Measurement of AsPC-1 cell growth inhibition (AsPC-1 CGI); assay type: cell-based; conditions: 96 h
In short: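 AsPC-1 cells in 15% FBS RPMI-1640 were exposed to test compound for 96 hours at 37° C, with CellTiter-Glo as endpoint.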

T1 sequence (P01116 1-188 isoform P01116-2 G12D): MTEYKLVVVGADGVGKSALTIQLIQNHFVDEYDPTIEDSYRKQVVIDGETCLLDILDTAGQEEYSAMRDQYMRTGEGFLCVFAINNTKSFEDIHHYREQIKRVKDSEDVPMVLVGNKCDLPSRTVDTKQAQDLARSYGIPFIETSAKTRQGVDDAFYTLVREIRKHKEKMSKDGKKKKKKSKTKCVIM

| SMILES | IC50 [1] [nM] | IC50 [2] [nM] |
| --- | --- | --- |
| CC[C@H](C)[C@@H]1NC(=O)[C@H](C)N(C)C(=O)C[C@@H](C(=O)N2CCCCC2)N(C)C(=O)[C@H](C2CCC2)N(C)C(=O)C(C)(C)N(C)C(=O)CN(c2ccccc2)C(=O)[C@H](CCc2ccc(C(F)(F)F)c(Cl)c2)NC(=O)CN(C)C(=O)[C@H](C2CCC2)N(C)C(=O)[C@@H]2CCN2C(=O)[C@H](C)N(C)C1=O [Compound 2144] ([NMeA]I[NMeA][Aze][NMeGly(cBu)][Sar][hPhe(3-Cl-4-CF3)][NPhGly][NMeAib][NMeGly(cBu)][NMeD]-Piperidide; lactam N-11) | 6.9 | > 500 |
| CC[C@H](C)[C@@H]1NC(=O)[C@H](C)N(C)C(=O)C[C@@H](C(=O)N2CCCCC2)N(C)C(=O)[C@H](C2CCC2)N(C)C(=O)C(C)(C)N(C)C(=O)CN(c2cccc(Cl)c2)C(=O)[C@H](CCc2ccc(C(F)(F)F)c(Cl)c2)NC(=O)CN(C)C(=O)[C@H](C2CCC2)N(C)C(=O)[C@@H]2CCN2C(=O)[C@H](C)N(C)C1=O [Compound 2146] ([NMeA]I[NMeA][Aze][NMeGly(cBu)][Sar][hPhe(3-Cl-4-CF3)][X21][NMeAib][NMeGly(cBu)][NMeD]-Piperidide; lactam N-11) | 5.1 | > 500 |
| CC[C@H](C)[C@@H]1NC(=O)[C@H](C)N(C)C(=O)C[C@@H](C(=O)N2CCCCC2)N(C)C(=O)[C@H](C2CCC2)N(C)C(=O)C(C)(C)N(C)C(=O)CN(c2ccc(Cl)cc2)C(=O)[C@H](CCc2ccc(C(F)(F)F)c(Cl)c2)NC(=O)CN(C)C(=O)[C@H](C2CCC2)N(C)C(=O)[C@@H]2CCN2C(=O)[C@H](C)N(C)C1=O [Compound 2147] ([NMeA]I[NMeA][Aze][NMeGly(cBu)][Sar][hPhe(3-Cl-4-CF3)][X43][NMeAib][NMeGly(cBu)][NMeD]-Piperidide; lactam N-11) | 8 | > 500 |
| CC[C@H](C)[C@@H]1NC(=O)[C@H](C)N(C)C(=O)C[C@@H](C(=O)N2CCCCC2)N(C)C(=O)[C@H](C2CCC2)N(C)C(=O)C2(CCCC2)NC(=O)CN(c2ccsc2)C(=O)[C@H](CCc2ccc(C(F)(F)F)c(Cl)c2)NC(=O)CN(C)C(=O)[C@H](CC2CCCCC2)N(C)C(=O)CN(C)C(=O)CN(C)C1=O [Compound 2149] ([NMeA]I[Sar][Sar][NMeCha][Sar][hPhe(3-Cl-4-CF3)][X7][Ac5c][NMeGly(cBu)][NMeD]-Piperidide; lactam N-11) | 4 | > 500 |
| CC[C@H](C)[C@@H]1NC(=O)[C@H](CC(C)C)N(C)C(=O)C[C@@H](C(=O)N2CCCCC2)N(C)C(=O)[C@H](C2CCCCC2)N(C)C(=O)C2(CCCC2)NC(=O)[C@H](Cc2ccc(C#N)nc2)N(C)C(=O)[C@H](CCc2ccc(C(F)(F)F)c(Cl)c2)NC(=O)CN(C)C(=O)[C@H](CC2CCCCC2)N(C)C(=O)CN(C)C(=O)CN(C)C1=O [Compound 2169] ([NMeL]I[Sar][Sar][NMeCha][Sar][hPhe(3-Cl-4-CF3)][X52][Ac5c][NMeChg][NMeD]-Piperidide; lactam N-11) | 6.1 | > 500 |
